Consider two molecules from US7419785B2, “Methods and compositions in breast cancer diagnosis and therapeutics” (Baylor College of Medicine, priority 2001, dated 2008).

The test system of experiment [1] is MCF-7 cells stably transfected with the mutant ER (A908G, Lys303Arg). In words: Cell growth of MCF-7 clones stably transfected with the mutant ER in response to estradiol. The settings on record: cells expressing the ERα mutant, calculated from the growth curves. The format is cell-based, human. Here is the method: (§1) The medium was replaced every 48 h and the cells were harvested and counted on days 2, 4, 6, and 8, respectively. Cell number X 10^4 is shown.
(§2) The WT ER expression construct was prepared in the pcDNAI vector as described previously (Fuqua et al., 1995). Site directed mutagenesis of this construct was then utilized to generate the A908G transition and the entire coding sequence of ER was verified by dideoxysequence analysis in this clone. The generation of stable transfectants was performed as described by Oesterreich et al. (1993) using cotransfection with the G418-selectable expression vector pSVneo at a ration of 25:1 with the ER plasmids into MCF-7 breast cancer cells. […] Two to three-fold elevated levels of total ER protein were detected in the two WT ER and the three Var clones. […] Furthermore, the relative levels of WT or Var sequences were determined by genomic sequence analysis as described above; the ER Var transfectants contained both WT nucleotide (A) and Var nucleotide (G) sequence in approximately equal ratios on the sequencing gels.
(§3) The proliferative response to hormones in breast cancer cell transfectants containing the mutation was tested to determine if this ER mutation confers a selective advantage. […] This cell line was chosen because it was determined that WT ERα was expressed along with the mutant in the original 2/4 typical hyperplastic lesions which were examined. […]

The test system of experiment [2] is MCF-7 breast cancer cells. In words: Cell growth of untransfected parental MCF-7 cells in response to estradiol. Format: cell-based, human. To be noted: calculated from the growth curves. As for the experimental part:
as §1, §2, §3

Experiment [3] deals with WT ERα and the A908G ERα mutation. Put plainly: Saturation binding Scatchard analyses. On the set-up: species or system human.
A further experiment has as its system breast cancer. The settings on record: patients with a history of ADH receiving tamoxifen (Fisher et al., 1998); cited from earlier work.

For the molecule `C[C@]12CC[C@@H]3c4ccc(O)cc4CC[C@H]3[C@@H]1CC[C@@H]2O` [estradiol], the doubling time in experiment [1] (10^−9 M of hormone) is given as 1.3 days; in experiment [1] (10^−12 M of hormone) it was 1.3 days; in experiment [2] (MCF-7 cells in 10^−9 M estradiol), 1.3 days; in experiment [2] (MCF-7 cells in 10^−12 M estradiol), 2.2 days.
For the molecule `CC/C(=C(\c1ccccc1)c1ccc(OCCN(C)C)cc1)c1ccccc1` [tamoxifen], in experiment [3], the “difference in affinity between WT ERα and the A908G ERα mutation” value is “nor were there differences in affinity”. Besides, in the experiment on breast cancer, the “decrease in breast cancer incidence” value is reported as 85%.
